Data taken from US7939554B2, “Protein phosphatase inhibitors” (The Cleveland Clinic Foundation, priority 2006, dated 2011).

Experiments:
recombinant SHP-1 = biological target: T1, recombinant SHP-1 (Homo sapiens, UniProt P29350); experiment: rapid in vitro SHP-1 PTPase assay (DIFMUP fluorescence substrate); type: biochemical; conditions: for inhibition of phosphatase activity of recombinant SHP-1: L5 and analogs, 1 μg/well, FIG. 12A
T1 construct: Recombinant protein of SHP-1 PTPase catalytic domain was described
T1 sequence (P29350 244-515 limits assumed): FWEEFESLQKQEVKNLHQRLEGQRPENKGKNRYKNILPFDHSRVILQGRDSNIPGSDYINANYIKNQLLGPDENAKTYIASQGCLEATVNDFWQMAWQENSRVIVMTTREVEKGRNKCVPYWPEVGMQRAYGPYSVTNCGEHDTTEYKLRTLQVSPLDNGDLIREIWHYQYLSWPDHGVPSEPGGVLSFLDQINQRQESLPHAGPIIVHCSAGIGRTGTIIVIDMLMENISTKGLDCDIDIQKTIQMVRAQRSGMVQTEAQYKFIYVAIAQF
Experimental: Recombinant protein of SHP-1 PTPase catalytic domain was described and stored in Tris buffer (25 mM Tris, pH7.5, 1 mM EDTA, 2 μM 2-ME, 25% glycerol) at −80° C. Fluorescence substrate DIFMUP (6,8-difluoro-4 methylumbelliferyl phosphate) was purchased (Molecular Probes). SSG was reported previously (21-23) and stored at 4° C. in darkness prior to use. Human and mouse IFNγ ELISPOT Kit (R & D System), CD4^+ Cell Intracellular IFNγ Detection Kit (BD Bioscience) and CD8^+ Cell Intracellular IFNγ Detection Kit (BD Bioscience) were purchased from commercial sources. Human Jurkat T cell line (26) and murine B16 melanoma cell line (ATCC) were maintained in […] culture medium supplemented with 10% fetal calf serum (FCS). Antibodies against pLck-pY394 (Cell Signaling), pLck-pY505 (Cell Signaling), pZap70 (pY319, BD Biosciences), pSlp76 (pY128, BD Biosciences) and pLat (pY226, BD Biosciences) were purchased from commercial sources.
A rapid SHP-1 PTPase assay was developed for screening the compounds in a commercial library of 34,000 drug-like small chemicals (Chembridge, Mass.). Briefly, compounds of the library (1 μg/well in […]) were placed in 96-well plates (Falcon, 353072) and mixed with recombinant SHP-1 protein (0.1 μg/well) in […] of HEPES buffer (50 mM HEPS, pH 7.5, 150 mM NaCl, 1 mM EDTA, 0.2 mM DTT and 0.1 mg/ml BSA). The plates were incubated at room temperature for 10 minutes prior to the addition of fluorescence substrate DIFMUP (40 μM stock in HEPES buffer, 10 μl/well) to initiate PTPase reaction. Upon completion of PTPase reaction at room temperature for 1 hr in darkness, fluorescence signal of individual wells were recorded using a Vector^2 Multilabel Counter (Vector, CA). They were compared to that of control SHP-1 PTPase reaction (˜10,000 units of fluorescence signal) in the absence of any compound (100%) for calculating relative SHP-1 inhibition induced by the compounds after subtracting the background signal (˜500 units of fluorescence signal) of the substrate.
To evaluate their SHP-1 inhibitory activity, the analogs (1 μg/well in 0.2 μl DMSO) were aliquot individually to 96-well plates (Falcon, 353072) and mixed with recombinant SHP-1 protein (0.1 μg/well) in 90 μl of HEPES buffer (50 mM HEPS, pH 7.5, 150 mM NaCl, 1 mM EDTA, 0.2 mM DTT and 0.1 mg/ml BSA). The plates were incubated at room temperature for 10 minutes prior to the addition of fluorescence substrate DIFMUP (40 μM stock in HEPES buffer, 10 μl/well) to initiate PTPase reaction. Upon completion of PTPase reaction at room temperature for 1 hr in darkness, fluorescence signal of individual wells were recorded using a Vector^2 Multilabel Counter (Vector, CA). […]

mouse splenocytes = experiment: induction of IFNγ+ cells in mouse splenocytes in vitro (ELISPOT); type: cell-based; conditions: 1 μg/ml; FIG. 11
Experimental: The splenocytes were cultured in RPMI 1640 medium supplemented with 10% FCS in the absence or presence of designated agents for 16 hrs in flat-bottom 96-well plates coated with a monoclonal antibody specific for mouse IFNγ (mouse IFNγ ELISPOT Kit, R & D System). The plates were then processed for in situ detection of IFNγ+ cells by ELISA following the manufacturer's procedure. Scanning and counting of IFNγ+ cells in the plates were accomplished using an automatic ELISPOT reader with Immunospot2 software (Cellular Technology Ltd). Mouse splenocytes were also untreated or treated with agents for 16 hrs in culture dishes and then stained with appropriate isotype control antibodies or FICT-labeled anti-CD3 monoclonal antibody (BD) plus PE-labeled monoclonal antibody (BD) for intracellular IFNγ following established procedures. The stained samples were washed 3 times, re-suspended in 200 μl of 1% para-formaldehyde solution and analyzed (20,000 cells/sample) using a BD FACS Caliburs cytometer and WinList software.
The splenocytes were cultured in RPMI 1640 medium supplemented with 10% FCS in the absence or presence of designated agents for 16 hrs in flat-bottom 96-well plates coated with a monoclonal antibody specific for mouse IFNγ (mouse IFNγ ELISPOT Kit, R & D System). The plates were then processed for in situ detection of IFNγ+ cells by ELISA following the manufacturer's procedure. Scanning and counting of IFNγ+ cells in the plates were accomplished using an automatic ELISPOT reader with Immunospot2 software (Cellular Technology Ltd).

B16 melanoma cells = experiment: B16 melanoma cell growth in culture (MTT assay); type: cell-based, mouse; conditions: 6 days; FIG. 13C
Experimental: Data represent mean±SD of triplicate samples. […] Tumor volumes were recorded as indicated. C, Athymic nude mice bearing 4-day-established B16 tumors were subjected to differential treatments as in B. Tumor volumes were recorded as indicated.
L5, L6 and L6 analogs (Chembridge), mouse IFNγ ELISPOT Kit (R & D System) and antibody against pLck-pY394 or pERK1/2 (Cell Signaling) were purchased from commercial sources. Human Jurkat T cell line and murine B16 melanoma cell line (ATCC) and other cancer cell lines were maintained in […] culture medium supplemented with 10% fetal calf serum (FCS). The effects of chemical compounds on cancer cell growth in culture were quantified by MTT assays following our established procedures.

[1] = test system: CD3+ and CD3- IFNγ+ splenocytes; experiment: spleno-IFNγ+ cells in B16 tumor mice (CD3/intracellular IFNγ FACS); type: in vivo, mouse; conditions: 1 mg/kg oral, day 22
Experimental: Splenocytes from mice untreated or treated with L5a2 were stained with appropriate isotype control antibodies or FICT-labeled anti-CD3 monoclonal antibody (BD) plus PE-labeled monoclonal antibody (BD) for intracellular IFNγ following established procedures. The stained samples were washed 3 times, re-suspended in 200 μl of 1% para-formaldehyde solution and analyzed (20,000 cells/sample) using a BD FACS Caliburs cytometer and FlowJoe software.
To gain further insights into the mechanism of action in L5a2 in vivo, spleens were harvested from the B16 tumor mice in the control and the L5a2-treated groups (FIG. 13A) on day 22 to assess whether L5a2 induced IFNγ+ cells in the tumor-bearing mice. It was also determined whether the induced-IFNγ+ cells were of CD3+ T lymphocytes, which were activated TH1 critical for anti-tumor immunity. Splenocytes were prepared and co-stained for intracellular IFNγ and the T cell surface marker CD3 for quantification of IFNγ+ T cells by flow cytometry.

intracellular SHP-1 = biological target: T2, intracellular SHP-1 (Homo sapiens, UniProt P29350); experiment: tyrosine phosphorylation of SHP-1 substrates in Jurkat cells (SDS-PAGE/Western blotting, densitometry); type: cell-based
T2 construct: endogenous in cells; host or cells: Jurkat
Experimental: (§1) Jurkat cells in culture medium (3×10^6 cells/ml, 1 ml/tube) were treated with agents for designated times at room temperature. After brief centrifuging in a microfuge (4,000 rpm, 2 min), the cell pellet was lysed on ice for 30 min in 1001 of cold lysis buffer (1% NP40, 50 mM Tris, pH 7.4, 150 mM NaCl, 20 mM NaF, 0.2 mM Na3VO4 and 1 mM Na3MO4) containing a cocktail of proteinase inhibitors (Sigma, 1 tablet/10 ml). The lysates were cleared by centrifuging (14,000 rpm, 10 min) in a microfuge at 4° C. to remove insoluble parts, mixed with equal volume of 2×SDS-PAGE sample buffer, boiled for 5 min and analyzed (˜3×10^5 cells/well) by SDS-PAGE/Western blotting. Relative intensities of phosphotyrosine bands were quantified through densitometry analysis.
as §1, with “100 μl” for “1001”, “blotting as described previously (23, 24).” for “blotting.”
as §1, with “100 μl” for “1001”, “blotting as described previously (17, 18).” for “blotting.”

SHP-2 = biological target: T3, SHP-2 (Homo sapiens, UniProt Q06124); experiment: SHP-2 inhibition by SSG (applicant's earlier studies); conditions: recombinant and intracellular SHP-2
T3 sequence (Q06124 1-593): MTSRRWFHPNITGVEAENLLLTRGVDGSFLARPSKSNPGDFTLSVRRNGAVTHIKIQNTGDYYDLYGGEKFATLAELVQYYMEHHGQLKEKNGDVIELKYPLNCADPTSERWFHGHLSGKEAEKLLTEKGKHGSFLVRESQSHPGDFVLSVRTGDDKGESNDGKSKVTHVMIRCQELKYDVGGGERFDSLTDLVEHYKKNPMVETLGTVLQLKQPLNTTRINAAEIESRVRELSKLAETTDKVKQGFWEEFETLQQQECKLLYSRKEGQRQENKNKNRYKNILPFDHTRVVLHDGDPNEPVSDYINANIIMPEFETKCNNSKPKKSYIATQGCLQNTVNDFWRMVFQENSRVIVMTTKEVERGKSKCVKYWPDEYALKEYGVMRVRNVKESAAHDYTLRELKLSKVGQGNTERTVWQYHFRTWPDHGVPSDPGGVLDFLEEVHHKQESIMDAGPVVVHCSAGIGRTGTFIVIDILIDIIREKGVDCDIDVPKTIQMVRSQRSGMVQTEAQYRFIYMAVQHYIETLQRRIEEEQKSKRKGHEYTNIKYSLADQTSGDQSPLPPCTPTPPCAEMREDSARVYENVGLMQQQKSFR

T2 sequence (P29350 whole entry): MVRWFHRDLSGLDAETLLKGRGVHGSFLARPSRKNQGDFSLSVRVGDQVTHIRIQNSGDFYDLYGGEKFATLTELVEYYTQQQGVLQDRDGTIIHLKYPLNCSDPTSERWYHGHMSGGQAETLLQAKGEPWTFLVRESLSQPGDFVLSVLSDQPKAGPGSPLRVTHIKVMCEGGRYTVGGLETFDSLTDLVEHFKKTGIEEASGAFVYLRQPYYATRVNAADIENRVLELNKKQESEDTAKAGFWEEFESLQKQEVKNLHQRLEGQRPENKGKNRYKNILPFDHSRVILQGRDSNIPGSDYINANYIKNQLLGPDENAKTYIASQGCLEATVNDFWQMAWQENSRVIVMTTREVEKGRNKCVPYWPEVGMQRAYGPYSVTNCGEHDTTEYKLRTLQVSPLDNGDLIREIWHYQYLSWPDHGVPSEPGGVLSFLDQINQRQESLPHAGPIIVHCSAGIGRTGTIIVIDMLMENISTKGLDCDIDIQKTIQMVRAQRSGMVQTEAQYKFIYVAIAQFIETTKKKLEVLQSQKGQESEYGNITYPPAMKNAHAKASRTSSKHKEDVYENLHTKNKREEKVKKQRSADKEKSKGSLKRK
Experimental for B16 melanoma tumors: Tumor volume (n=5) was measured during the study period and calculated using the formula for a prolate spheroid. Student's t test was used for assessing the significance of tumor volume differences among differential treatment groups. Mouse viability (daily) and body weights (weekly) were also recorded during the study period. Major internal organs of the mice were inspected visually upon their termination at the end of the experiment.
To assess anti-tumor activity, C57BL/6J mice (˜8-week old, female, Taconic Farms, Germantown, N.Y.) were inoculated (s. c.) at the flanks with B16 melanoma cells (4×10^4 cells/site). […] Tumor volume (n=5) was measured during the study period and calculated using the formula for a prolate spheroid. Student's t test was used for assessing the significance of tumor volume differences among differential treatment groups. Mouse viability (daily) and body weights (weekly) were also recorded during the study period. Major internal organs of the mice were inspected visually upon their termination at the end of the experiment.

Row | SMILES | inhibition of phosphatase activity of recombinant SHP-1 (recombinant SHP-1) | induction of IFNγ+ cells (mouse splenocytes) | inhibition of B16 melanoma cells in culture (B16 melanoma cells) | increase of CD3+ IFNγ+ cells [1] | increase of CD3- IFNγ+ cells [1] | B16 tumor growth inhibition versus control (B16 melanoma tumors; 1 mg/kg/daily, M-F/wk, oral, day 22) | tolerance of treated tumor mice (behavior, gross anatomy) (B16 melanoma tumors; mouse, in vivo) | level at which SHP-1 is inhibited (recombinant SHP-1; recombinant and intracellular SHP-1) | pLck-pY394 induction (intracellular SHP-1; 10 μg/ml, 10 min) | dose effective in inducing pLck-pY394 (lowest / only effective dose) (intracellular SHP-1; 10 min treatment) | level active against intracellular SHP-1 (intracellular SHP-1; Jurkat T cells, molar equivalent) | pLck-pY394 induction (intracellular SHP-1; lower (1 μg/ml) or higher (100 μg/ml) doses) | level at which SHP-2 is inhibited (SHP-2)
1 | O=C1C=CC(=O)C(c2cccc(Cl)c2)=C1 [L5a2] | completely or almost completely inhibited | ~20 fold | failed to inhibit | ~4.5 fold | 1.3 fold | ~75% | no apparent abnormality |  |  |  |  |  | 
2 | O=C1C=C(c2ccccc2)C(=O)c2ccccc21 [L5a3] | ~80% |  |  |  |  |  |  |  |  |  |  |  | 
3 | O.O.O.O.O.O.O.O.O.O=C([O-])[C@@H]1[O][Sb]2([O-])([O][Sb]34([OH])[O][C@H]([C@H](O)CO)[C@H]([O]3)[C@H](C(=O)[O-])[O]4)[O][C@H]([C@H](O)CO)[C@@H]1[O]2.[Na+].[Na+].[Na+] [SSG, Sodium Stibogluconate, reference compound] |  |  |  |  |  |  |  | 10 µg/mL | ~2 fold | 10 μg/ml | ~14 µM | failed | 10 µg/mL
